The source of these data is US9617310B2 (priority 2013, dated 2017).

The subject of assay [1] is genotype 3a stable HCV replicon (S52) in Huh-7-derived cells. In words: Stable subgenomic HCV replicon, genotype 3a, Renilla luciferase. In kind it is cell-based. To be noted: Hepatitis C virus, 72 h, read-out: EC50 3A RLUC.
The subject of assay [2] is genotype 1b wild-type transient HCV replicon in Huh-7-derived cells. In words: Transient-transfected HCV replicon, genotype 1b wild type. To be noted: Hepatitis C virus; transient-transfected replicon genotype 1b wild type, 72 h; read-out: EC50 1B WT. It is filed as cell-based.
In assay [3] the test system is genotype 1a stable HCV replicon (H77) in Huh-7-derived cells. In words: Stable subgenomic HCV replicon, genotype 1a, Renilla luciferase. In kind it is cell-based. To be noted: Hepatitis C virus, stable replicon genotype 1a, 72 h, read-out: EC50 1A RLUC. Summed up: (§1)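 Replicons carry hRLuc-neo, EMCV IRES and NS3-NS5B with adaptive mutations: 1a H77 P1496L/S2204I, 1b Con1 E1202G/T1280I/K1846T, 4a ED43 Q1691R/S2204I. EC50 came from non-linear regression versus DMSO and a triple-inhibitor full-inhibition control.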

The subject of assay [4] is genotype 3a transient HCV replicon (S52) in Huh-7-derived cells. As to the kind of experiment: Transient-transfected HCV replicon, genotype 3a wild type. To be noted: Hepatitis C virus; transient-transfected replicon genotype 3a wild type, 72 h; read-out: EC50 3A WT. It is filed as cell-based.
The test system of assay [5] is genotype 1b stable HCV replicon (Con1) in Huh-7-derived cells. As to the kind of experiment: Stable subgenomic HCV replicon, genotype 1b, Renilla luciferase. In kind it is cell-based. The settings on record: Hepatitis C virus, stable replicon genotype 1b, 72 h, read-out: EC50 1B RLUC. An outline of the steps:
as §1

For another assay, the target named is T1, NS3 genotype 1b protease (Hepatitis C virus genotype 1b, UniProt Q9WMX2, E1202G).
T1 construct: Purified NS3 protease domain (amino acids 1-181) of the genotype 1b and 3a virus were generated as above; K3 hexahistidine tag (N); rTEV protease cleavage site (N); made in house; host or cells: E. coli BL21AI
T1 sequence (Q9WMX2 1027-1207 E1202G, other chains not shown): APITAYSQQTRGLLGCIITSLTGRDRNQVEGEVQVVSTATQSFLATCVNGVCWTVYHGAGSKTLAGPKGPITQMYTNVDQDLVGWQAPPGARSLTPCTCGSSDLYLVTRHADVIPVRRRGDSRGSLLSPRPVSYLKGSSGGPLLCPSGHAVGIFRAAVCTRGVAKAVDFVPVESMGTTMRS
In words: Ki determination, NS3 protease genotype 1b (fluorogenic depsipeptide substrate). In kind it is biochemical. The settings on record: NS3 protease domain genotype 1b, NS4A peptide. An outline of the steps:
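NS3 protease domain (aa 1-181), 50 pM (1b) or 200 pM (3a), with 20 μM NS4A peptide, pre-incubated 1 h with inhibitor (100 nM–5 pM); 4 μM (1b) or 2 μM (3a) FRET depsipeptide substrate, room temperature, pH-unspecified HEPES buffer with 40% glycerol, 10% DMSO. Steady-state rates at 90–120 min (ex 340/em 490); Morrison fit gave Ki^app, corrected to Ki via substrate/Km.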

Assay [6] deals with NS3/4a protease inhibitor resistant variant R155K in genotype 1a transient HCV replicon. In words: Transient-transfected HCV replicon, genotype 1a R155K. It is filed as cell-based. To be noted: Hepatitis C virus, 72 h, read-out: EC50 1A R155K.
Assay [7] concerns genotype 4a stable HCV replicon (ED43) in Huh-7-derived cells. In words: Stable subgenomic HCV replicon, genotype 4a, Renilla luciferase. It is filed as cell-based. The settings on record: Hepatitis C virus, 72 h, read-out: EC50 4A RLUC. Summed up:
as §1

As to `CC(C)(C)[C@@H]1NC(=O)O[C@@H]2C[C@@H]3C[C@@H]3[C@H]2CCCCC(F)(F)c2nc3ccc(C#N)cc3nc2O[C@@H]2C[C@@H](C(=O)N[C@]3(C(=O)NS(=O)(=O)C4(C)CC4)C[C@H]3C(F)F)N(C2)C1=O` [Example 14, (1aS,2aR,6S,9S,11R,23aR,23bS)-6-tert-butyl-15-cyano-N-[(1R,2R)-2-(difluoromethyl)-1-{[(1-methylcyclopropyl)sulfonyl]carbamoyl}cyclopropyl]-19,19-difluoro-4,7-dioxo-1a,2,2a,4,5,6,7,10,11,19,20,21,22,23,23a,23b-hexadecahydro-1H,9H-8,11-methanocyclopropa[4′,5′]cyclopenta [1′,2′:18,19][1,10,3,6]dioxadiazacyclononadecino[11,12-b]quinoxaline-9-carboxamide], the EC50 in assay [1] stood at 5 nM; in assay [2] it was 0.55 nM; in assay [3], 1.4 nM; in assay [4], 1.4 nM; in assay [5], 1.1 nM; in assay [6] it was 0.69 nM. For the same compound, in assay [7], the EC50 is 1.4 nM. The compound further showed a Ki at NS3 genotype 1b protease of 0.01 nM.
Take `CC(C)(C)[C@@H]1NC(=O)O[C@@H]2C[C@@H]3C[C@@H]3[C@H]2CCCCC(F)(F)c2nc3ccc(OC(F)F)cc3nc2O[C@@H]2C[C@@H](C(=O)N[C@]3(C(=O)NS(=O)(=O)C4CC4)C[C@H]3C(F)F)N(C2)C1=O` [Example 16, (1aS,2aR,6S,9S,11R,23aR,23bS)-6-tert-butyl-N-[(1R,2R)-1-[(cyclopropylsulfonyl)carbamoyl]-2-(difluoromethyl)cyclopropyl]-15-(difluoromethoxy)-19,19-difluoro-4,7-dioxo-1a,2,2a,4,5,6,7,10,11,19,20,21,22,23,23a,23b-hexadecahydro-1H,9H-8,11-methanocyclopropa[4′,5′]cyclopenta [1′,2′:18,19][1,10,3,6]dioxadiazacyclononadecino[11,12-b]quinoxaline-9-carboxamide]: the EC50 in assay [1] is 127 nM; in assay [2], 1.6 nM; in assay [3], 3.8 nM; in assay [4], 50 nM; in assay [5] it was 4.2 nM; in assay [6], 2 nM. Besides, the 50% effective concentration (EC50) in assay [7] stood at 2.3 nM. This compound showed a Ki at NS3 genotype 1b protease of 0.03 nM.
In the case of `CC(C)(C)[C@@H]1NC(=O)O[C@@H]2C[C@@H]3C[C@@H]3[C@H]2CCCCC(F)(F)c2nc3ccccc3nc2O[C@@H]2C[C@@H](C(=O)N[C@]3(C(=O)NS(=O)(=O)C4(C)CC4)C[C@H]3C(F)F)N(C2)C1=O` [Example 17], the EC50 in assay [1] was determined as 26 nM; in assay [2], 1.3 nM; in assay [3], 5.8 nM; in assay [4], 7.1 nM; in assay [5] it was 4.7 nM; in assay [6] it was 2.9 nM. The EC50 in assay [7] was determined as 4.8 nM. At NS3 genotype 1b protease, this compound had a Ki of 0.01 nM.
On to `CC(C)(C)[C@@H]1NC(=O)O[C@@H]2C[C@@H]3C[C@@H]3[C@H]2CCCCC(F)(F)c2nc3ccccc3nc2O[C@@H]2C[C@@H](C(=O)N[C@]3(C(=O)NS(=O)(=O)C4CC4)C[C@H]3C(F)F)N(C2)C1=O` [Example 18], for which the EC50 in assay [1] was 18 nM; in assay [2], 1.6 nM; in assay [3], 4.8 nM; in assay [4], 4.9 nM; in assay [5], 4.1 nM; in assay [6], 2.6 nM. In assay [7], the EC50 came to 4.2 nM. The compound also showed an inhibition constant Ki on NS3 genotype 1b protease of 0.01 nM.
`CC(C)(C)[C@@H]1NC(=O)O[C@@H]2C[C@@H]3C[C@@H]3[C@H]2CCCCCc2nc3ccc(Cl)cc3nc2O[C@@H]2C[C@@H](C(=O)N[C@]3(C(=O)NS(=O)(=O)C4CC4)C[C@H]3C(F)F)N(C2)C1=O` [Example 19, (1aS,2aR,6S,9S,11R,23aR,23bS)-6-tert-butyl-15-chloro-N-[(1R,2R)-1-[(cyclopropylsulfonyl)carbamoyl]-2-(difluoromethyl)cyclopropyl]-4,7-dioxo-1a,2,2a,4,5,6,7,10,11,19,20,21,22,23,23a, 23b-hexadecahydro-1H,9H-8,11-methanocyclopropa[4′,5′]cyclopenta[1′,2′:18,19][1,10,3,6]dioxadiazacyclononadecino[11,12-b]quinoxaline-9-carboxamide]: the EC50 in assay [1] is 82 nM; in assay [2], 1.1 nM; in assay [3], 1.4 nM; in assay [4] it was 17 nM; in assay [5], 1.3 nM; in assay [6], 1.9 nM. In addition, the EC50 in assay [7] worked out at 1.8 nM. The same compound gave a Ki at NS3 genotype 1b protease of 0.02 nM.
In the case of `COc1ccc2nc3c(nc2c1)O[C@@H]1C[C@@H](C(=O)N[C@]2(C(=O)NS(=O)(=O)C4(C)CC4)C[C@H]2CC(F)F)N(C1)C(=O)[C@H](C(C)(C)C)NC(=O)O[C@@H]1C[C@@H]2C[C@@H]2[C@H]1CCCCC3(F)F` [Example 20, (1aS,2aR,6S,9S,11R,23aR,23bS)-6-tert-butyl-N-[(1R,2S)-2-(2,2-difluoroethyl)-1-{[(1-methylcyclopropyl)sulfonyl]carbamoyl}cyclopropyl]-19,19-difluoro-15-methoxy-4,7-dioxo-1a,2,2a,4,5,6,7,10,11,19,20,21,22,23,23a,23b-hexadecahydro-1H,9H-8,11-methanocyclopropa[4′,5′]cyclopenta[1′,2′:18,19][1,10,3,6]dioxadiazacyclononadecino[11,12-b]quinoxaline-9-carboxamide], the EC50 in assay [1] was 46 nM; in assay [2], 4.1 nM; in assay [3], 6 nM; in assay [4], 12 nM; in assay [5], 5.9 nM; in assay [6] it was 5 nM. In addition, the EC50 in assay [7] amounted to 5 nM. The compound further displayed a Ki at NS3 genotype 1b protease of 0.04 nM.
Take `COc1ccc2cc3c(nc2c1)O[C@@H]1C[C@@H](C(=O)N[C@]2(C(=O)NS(=O)(=O)C4CC4)C[C@H]2C(F)F)N(C1)C(=O)[C@H](C(C)(C)C)NC(=O)O[C@@H]1C[C@@H]2C[C@@H]2[C@H]1CCCCC3` [Example 21, (1aS,2aR,6S,9S,11R,23aR,23bS)-6-tert-butyl-N-[(1R,2R)-1-[(cyclopropylsulfonyl)carbamoyl]-2-(difluoromethyl)cyclopropyl]-15-methoxy-4,7-dioxo-1a,2,2a,4,5,6,7,10,11,19,20,21,22,23,23a,23b-hexadecahydro-1H,9H-8,11-methanocyclopropa[4′,5′]cyclopenta[1′,2′:18,19][1,10,3,6]dioxadiazacyclononadecino[11,12-b]quinoline-9-carboxamide]: the EC50 was found to be 115 nM in assay [1]; 0.61 nM in assay [2]; 1.6 nM in assay [3]; 36 nM in assay [4]; 0.95 nM in assay [5]; 1.4 nM in assay [6]. The EC50 in assay [7] was determined as 1.4 nM. The affinity on NS3 genotype 1b protease, expressed as Ki, was 0.02 nM.
